In the assay the target is T1, CapZβ (Homo sapiens, UniProt P47756).
T1 construct: gene CAPZB; recombinant CapZβ
As to the kind of experiment: isothermal titration calorimetry. The assay is classed as binding. The settings on record: biotinylated vacuolin-1 analogue; labelled compound. A general note: ITC needs no label: the signal is the heat of the interaction.

T1 sequence (P47756 2-272): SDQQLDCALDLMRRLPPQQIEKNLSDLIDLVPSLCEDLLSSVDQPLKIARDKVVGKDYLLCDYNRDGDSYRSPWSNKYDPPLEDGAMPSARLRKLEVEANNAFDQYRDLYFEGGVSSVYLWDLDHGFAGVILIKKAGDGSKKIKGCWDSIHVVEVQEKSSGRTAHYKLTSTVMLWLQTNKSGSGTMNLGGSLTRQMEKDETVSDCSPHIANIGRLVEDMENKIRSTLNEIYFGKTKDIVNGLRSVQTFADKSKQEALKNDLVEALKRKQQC

As usually defined, the Kd is the concentration at which binding is half-saturated. For biotin-V1, the Kd was ~3.1 µM.

Source of the values: article PMC7946642, “Vacuolin-1 inhibits endosomal trafficking and metastasis via CapZβ” (Oncogene, 2021).
